A value given as a limit tells only on which side of the number the result lay.

The values below come from patent US10105367B2, “Therapeutic thiophene-, furan-, and pyridine-fused azolopyrimidin-5-(6h)-ones” (Dart Neuroscience (Cayman) Ltd., priority 2012, dated 2018).

The first experiment concerns the target human PDE1B (Homo sapiens (Human), UniProt Q01064). The experiment in a line: PDE1B inhibitory assay (IMAP TR-FRET). Particulars: PDE1B pIC50, negative log of half-maximal molar inhibitory concentration; 200 nM FAM-cAMP, Calmodulin, CaCl2. On the technique in general: TR-FRET usually uses a lanthanide donor and a delayed reading to cut background.
Method: PDE1B inhibition was determined by an IMAP TR-FRET assay.
After a brief centrifugation, the plates were incubated for 30 minutes at room temperature. The assay was terminated by adding 5 μL IMAP binding reagent/Tb complex (Molecular Devices, Sunnyvale, Calif.) to each well.
Plates were incubated 1 hour at room temperature and read on a Viewlux multimode plate reader (Perkin Elmer). The instrument was set to excite using the DUG11 filter and measure using 490/10 nm and 520/10 nm filters. Ratios of acceptor and donor were then calculated.
For IC50 calculations, the values of % efficacy versus a series of compound concentrations were then plotted using non-linear regression analysis of sigmoidal dose-response curves generated with the equation Y=B+(T−B)/1+10((Log EC50−X)×Hill Slope), where Y=percent activity, B=minimum percent efficacy, T=maximum percent efficacy, X=logarithm of compound and Hill Slope=slope factor or Hill coefficient. The IC50 value was determined by the concentration causing a half-maximal percent efficacy.
As to `COc1ccc(Cn2c(=O)n3ncnc3c3nc(Br)cnc32)cc1` [Example 188], the concentration for half-maximal inhibition (IC50) – broadly, the midpoint of a concentration-inhibition curve – was in the range of 100 to 1000 nM.

`COc1ccc(Cn2c(=O)n3ncnc3c3cc(-c4ccc(OC)nc4)cnc32)cc1` [Example 190] had a 50% inhibitory concentration (IC50) of 100 to 1000 nM.

`COc1ccc(Cn2c(=O)n3ncnc3c3cc(-n4nc(C)ccc4=O)cnc32)cc1` [Example 192, 6-(4-Methoxybenzyl)-9-(3-methyl-6-oxopyridazin-1(6H)-yl)pyrido[3,2-e][1,2,4]triazolo[1,5-c]pyrimidin-5(6H)-one] came in with an IC50 of 100 to 1000 nM.

Regarding `COc1ccc(Cn2c(=O)n3ncnc3c3cc(N4CCN(C5CC5)CC4)cnc32)cc1` [Example 193, 9-(4-Cyclopropylpiperazin-1-yl)-6-(4-methoxybenzyl)pyrido[3,2-e][1,2,4]triazolo[1,5-c]pyrimidin-5(6H)-one], the concentration for half-maximal inhibition (IC50) was 100 to 1000 nM.

Take `COc1ccc(Cn2c(=O)n3ncnc3c3cc(N[C@H]4CCCC[C@@H]4N)cnc32)cc1` [Example 194]: the half-inhibitory concentration (IC50) was 1000 to 10000 nM.

In turn, `COc1ccc(Cn2c(=O)n3ncnc3c3nc(N(C)C4CCN(C)CC4)cnc32)cc1` [Example 195] had an IC50 of 1000 to 10000 nM.

In turn, `COc1ccc(Cn2c(=O)n3ncnc3c3nc(N(C)CCN(C)C)cnc32)cc1` [Example 196] had a half-inhibitory concentration (IC50) of 1000 to 10000 nM.

`COCCN1CCN(c2cnc3c(c2)c2ncnn2c(=O)n3Cc2ccc(OC)cc2)CC1` [Example 197] yielded an IC50 of 100 to 1000 nM.

In the case of `COc1ccc(Cn2c(=O)n3ncnc3c3cc(N4CCC(N(C)C)C4)cnc32)cc1` (stereo not drawn) [Example 198], the IC50 was in the range of 100 to 1000 nM.

In turn, `COc1ccc(Cn2c(=O)n3ncnc3c3cc(N4CCC(N(C)C)CC4)cnc32)cc1` [Example 199] displayed an IC50 of 100 to 1000 nM.

`COc1ccc(Cn2c(=O)n3ncnc3c3cc(N(C)C4CCOCC4)cnc32)cc1` [Example 200] came in with a 50% inhibitory concentration (IC50) of 100 to 1000 nM.

`COc1ccc(Cn2c(=O)n3ncnc3c3cc(N4C[C@@H](C)O[C@@H](C)C4)cnc32)cc1` [Example 201] gave a half-inhibitory concentration (IC50) of 100 to 1000 nM.

Molecule `COc1ccc(Cn2c(=O)n3ncnc3c3cc(N(C)CCCN(C)C)cnc32)cc1` [Example 202] displayed an IC50 of 1000 to 10000 nM.

As for `COc1ccc(Cn2c(=O)n3ncnc3c3cc(N4CCN(S(C)(=O)=O)CC4)cnc32)cc1` [Example 203], the concentration for half-maximal inhibition (IC50) is 100 to 1000 nM.

On to `COc1ccc(Cn2c(=O)n3ncnc3c3cc(CCNC(=O)OCc4ccccc4)cnc32)cc1` [Example 204, Benzyl 2-(6-(4-Methoxybenzyl)-5-oxo-5,6-dihydropyrido[3,2-e][1,2,4]triazolo[1,5-c]pyrimidin-9-yl)ethylcarbamate], for which the IC50 was 100 to 1000 nM.

`COc1ccc(Cn2c(=O)n3ncnc3c3cc(CN4CCOCC4)cnc32)cc1` [Example 205] had a half-maximal inhibitory concentration (IC50) of 100 to 1000 nM.

Consider `COc1ccc(Cn2c(=O)n3ncnc3c3cc(CN4CCCCC4)cnc32)cc1` [Example 206], for which the IC50 lay within 100 to 1000 nM.

As for `COc1ccc(Cn2c(=O)n3ncnc3c3cc(CN4CCSCC4)cnc32)cc1` [Example 207], the IC50 was in the range of 100 to 1000 nM.

The molecule `O=c1n(Cc2ccc(Cl)cc2)c2ncc(CN3CCOCC3)cc2c2ncnn12` [Example 208] had an IC50 of 100 to 1000 nM.

In the case of `O=c1n(Cc2ccc(Cl)cc2)c2ncc(CN3CCCCC3)cc2c2ncnn12` [Example 209], the half-maximal inhibitory concentration (IC50) lay within 1000 to 10000 nM.

Consider `C[C@@H]1CN(Cc2cnc3c(c2)c2ncnn2c(=O)n3Cc2ccc(Cl)cc2)C[C@H](C)O1` [Example 210], for which the concentration for half-maximal inhibition (IC50) lay in the range of 100 to 1000 nM.

Molecule `COc1ccc(Cn2c(=O)n3ncnc3c3cc(CCN)cnc32)cc1` [Example 211, 9-(2-Aminoethyl)-6-(4-methoxybenzyl)pyrido[3,2-e][1,2,4]triazolo[1,5-c]pyrimidin-5(6H)-one] yielded an IC50 of 1000 to 10000 nM.

Staying with this experiment, now noted: negative log of half-maximal molar inhibitory concentration; 200 nM FAM-cAMP, Calmodulin, CaCl2.
On to `COc1ccc(Cn2c(=O)n3ncnc3c3cc(-c4ccc(OC)c(OC)c4)cnc32)cc1` [Example 189, 9-(3,4-Dimethoxyphenyl)-6-(4-methoxybenzyl)pyrido[3,2-e][1,2,4]triazolo[1,5-c]pyrimidin-5(6H)-one], for which the “PDE1B pIC50” value is >7.

Turning to `COc1ccc(Cn2c(=O)n3ncnc3c3cc(-c4cccnc4OC)cnc32)cc1` [Example 191], the “PDE1B pIC50” value is listed as >7.
